Our source for the IC50 values is US8895585B2, “Nicotinamide derivative or salt thereof” (FUJIFILM Corporation, priority 2010, dated 2014).

Where only a bound is given, the exact number is not on record here.

The target in one assay is T1, glutathione S-transferase (GST)-fused full-length human Syk protein (Homo sapiens, UniProt P43405).
T1 construct: (GST)-fused full-length human Syk protein; GST (glutathione S-transferase); purchased Carna Biosciences
As to the kind of experiment: Syk enzyme assay. It is filed as biochemical. Particulars: Syk enzyme assay, Test Example 1; read-out: IC50 of Syk-inhibitory activity. The essentials:
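IC50 values come from a time-resolved FRET readout (615 and 665 nm) of substrate phosphorylation, measured after an EDTA stop and 1 h antibody binding. The kinase reaction ran 40 min at room temperature with 27 μM ATP and 0.4 μM biotin-peptide, following a 15 min compound preincubation with baculovirus-made GST-full-length human Syk.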
The IC50 is the midpoint of a concentration-inhibition curve. Regarding `NC(=O)c1cc(F)c(N[C@@H]2CCCC[C@@H]2N)nc1Nc1cnc(C2CC2)c(Cl)c1` [Example 006-569, 6-(((1R,2S)-2-aminocyclohexyl)amino)-2-((5-chloro-6-cyclopropylpyridin-3-yl)amino)-5-fluoronicotinamide], the 50% inhibitory concentration (IC50) is 10 to 50 nM.
Regarding `COc1cc(Nc2nc(N[C@@H]3CCCC[C@@H]3N)c(F)cc2C(N)=O)cc2cccnc12` (relative stereo) [Example 004-138, 6-(cis-2-aminocyclohexylamino)-5-fluoro-2-((8-methoxyquinolin-6-yl)amino)nicotinamide], the IC50 is less than 10 nM.
Same read-out and setting: in the case of `NC(=O)c1cc(F)c(N[C@@H]2CCCC[C@@H]2N)nc1Nc1ccc2c(cnn2CC2CC2)c1` (relative stereo) [Example 004-090, 6-(cis-2-aminocyclohexylamino)-2-((1-(cyclopropylmethyl)-1H-indazol-5-yl)amino)-5-fluoronicotinamide] it was 10 to 50 nM.
Regarding `CC(C)C[C@H](CN)Nc1nc(Nc2cncc3ccccc23)c(C(N)=O)cc1F` [Example 006-231], the 50% inhibitory concentration (IC50) is less than 10 nM.
Still for that read-out and setting: in the case of `CC(C)C[C@H](CN)Nc1nc(Nc2cncc(-c3ccccc3)c2)c(C(N)=O)cc1F` [Example 006-235, (R)-6-((1-amino-4-methylpentan-2-yl)amino)-5-fluoro-2-((5-phenylpyridin-3-yl)amino)nicotinamide] it was 10 to 50 nM.
`CCCOc1cnc2cc(Nc3nc(N[C@@H]4CCCC[C@@H]4N)c(F)cc3C(N)=O)ccc2n1` (relative stereo) [Example 004-177, 6-(cis-2-aminocyclohexylamino)-5-fluoro-2-((2-propoxyquinoxalin-6-yl)amino)nicotinamide]: the half-maximal inhibitory concentration (IC50) lay in the range of 10 to 50 nM.
On the same count and under the same terms, in the case of `NCCNc1nc(Nc2cccc(Cl)c2)c(C(N)=O)cc1F` [Example 006-006, 6-((2-aminoethyl)amino)-2-(3-chlorophenylamino)-5-fluoronico-tinamide] it was 100 to 1000 nM.
Consider `CCCC[C@@H](Nc1nc(Nc2cnc3cc(OC)ccc3c2)c(C(N)=O)cc1F)[C@H](C)N` [Example 006-205, 6-(((2S,3R)-2-aminoheptan-3-yl)amino)-5-fluoro-2-((7-methoxyquinolin-3-yl)amino)nicotinamide], for which the IC50 was less than 10 nM.
Still for that read-out and setting: in the case of `NC(=O)c1cc(F)c(NC2CCCCC2N)nc1Nc1ccc(N2CCCCC2=O)nc1` (stereo not shown) [Example 002-157] it was 100 to 1000 nM; in that of `CCNc1nc(Nc2cc(OC)cc(OC)c2)c(C(N)=O)cc1F` [Example 016-001], 100 to 1000 nM; in that of `CCOCCOCCn1ncc2c(Nc3nc(NC4CCCCC4N)c(F)cc3C(N)=O)cccc21` (stereo not shown) [Example 002-031], less than 10 nM.
On the same count and under the same terms, under `COc1ccc(-c2cc(Nc3nc(NC4CCCCC4N)c(F)cc3C(N)=O)ccn2)cc1` (stereo not shown) [Example 002-184] stands less than 10 nM; under `NC(=O)c1cc(F)c(N[C@@H]2CCCC[C@@H]2N)nc1Nc1cnc2nccnc2c1` [Example 004-021], 100 to 1000 nM.
For the molecule `NC(=O)c1cc(F)c(NC2CCCCC2N)nc1Nc1cncc(NC(=O)c2ccc(F)cc2F)c1` (stereo not shown) [Example 027-029], the IC50 fell in the range of 10 to 50 nM.
Take `NC(=O)c1cc(F)c(NC2CCCCC2N)nc1Nc1cncc(NC(=O)c2ccc(Cl)cc2)c1` (stereo not shown) [Example 027-009]: the IC50 was 10 to 50 nM.
Turning to `NC(=O)c1cc(F)c(N[C@@H]2CCCC[C@@H]2N)nc1Nc1cncc(C(F)(F)F)c1` (relative stereo) [Example 004-098, 6-(cis-2-aminocyclohexylamino)-5-fluoro-2-((5-(trifluoromethyl)pyridin-3-yl)amino)-nicotinamide], the IC50 was 10 to 50 nM.
Regarding `NC(=O)c1cc(F)c(N[C@@H]2CCCC[C@@H]2N)nc1Nc1cncc(-c2cccc(Cl)c2)c1` (relative stereo) [Example 004-147, 6-(cis-2-aminocyclohexylamino)-2-((5-(3-chlorophenyl)pyridin-3-yl)amino)-5-fluoronicotinamide], the concentration for half-maximal inhibition (IC50) is less than 10 nM.
The same measure, in the same setting: under `COc1cc(Nc2nc(NCCc3c[nH]c4ccccc34)c(F)cc2C(N)=O)cc(OC)c1` [Example 020-002] stands 100 to 1000 nM; under `CC[C@H](Nc1nc(Nc2ccc3ncccc3c2)c(C(N)=O)cc1F)[C@H](C)N` [Example 006-179, 6-(((2S,3S)-2-aminopentan-3-yl)amino)-5-fluoro-2-((quinolin-6-yl)amino)nicotinamide], 50 to 100 nM.
Regarding `NC(=O)c1cc(F)c(N[C@H](Cc2ccccc2)C(N)=O)nc1Nc1cnc2ccccc2c1` [Example 012-025], the IC50 was in the range of 10 to 50 nM.
As to `Cn1ccc2c(Nc3nc(N[C@@H]4CCCC[C@@H]4N)c(F)cc3C(N)=O)cc(C(F)(F)F)cc21` [Example 004-086], the half-inhibitory concentration (IC50) was less than 10 nM.
For the molecule `COCCOc1ncc(Nc2nc(N[C@@H]3CCCC[C@@H]3N)c(F)cc2C(N)=O)cc1N1CCOCC1` [Example 006-566, 6-(((1R,2S)-2-aminocyclohexyl)amino)-5-fluoro-2-((6-(2-methoxyethoxy)-5-morpholinopyridin-3-yl)amino)nicotinamide], the half-maximal inhibitory concentration (IC50) lay in the range of 100 to 1000 nM.
As to `CC(C)COc1ccccc1-c1cncc(Nc2nc(N[C@@H]3CCCC[C@@H]3N)c(F)cc2C(N)=O)c1` (relative stereo) [Example 004-183, 6-(cis-2-aminocyclohexylamino)-5-fluoro-2-((5-(2-isobutoxyphenyl)pyridin-3-yl)amino)-nicotinamide], the IC50 was in the range of 50 to 100 nM.
For `Cc1ncc(Nc2nc(NC3CCCCC3N)c(F)cc2C(N)=O)cc1N1CCCC1` (stereo not shown) [Example 002-040], the concentration for half-maximal inhibition (IC50) lay within 10 to 50 nM.
On to `CCOCCOCCn1cc2c(Nc3nc(NC4CCCCC4N)c(F)cc3C(N)=O)cccc2n1` (stereo not shown) [Example 002-035], for which the IC50 lay within 10 to 50 nM.
For `NC(=O)c1cc(F)c(NC2CCCCC2N)nc1Nc1cncc(C2CCCCC2)c1` (stereo not shown) [Example 002-096], the IC50 was in the range of 10 to 50 nM.
On to `NC(=O)c1cc(F)c(NC2CCCCC2N)nc1Nc1ccc(NCCCN2CCOCC2)nc1` (stereo not shown) [Example 002-081], for which the 50% inhibitory concentration (IC50) lay in the range of 10 to 50 nM.
In the case of `COc1ncc(Nc2nc(NC3CCCCC3N)c(F)cc2C(N)=O)cc1C1CC1` (stereo not shown) [Example 002-153], the half-maximal inhibitory concentration (IC50) was 10 to 50 nM.
As for `NC(=O)c1cc(F)c(NC2CCCCC2N)nc1Nc1cncc(NC(=O)c2ccc3c(c2)OCO3)c1` (stereo not shown) [Example 027-034], the IC50 is 10 to 50 nM.
The same measure, in the same setting: under `COCCOc1nc2ccc(Nc3nc(NC4CCCCC4N)c(F)cc3C(N)=O)cc2nc1OCCOC` (stereo not shown) [Example 002-121] stands 100 to 1000 nM.
Take `CC(C)(C)[C@H](N)CNc1nc(Nc2ccc3ncccc3c2)c(C(N)=O)cc1F` [Example 014-015, (S)-6-((2-amino-3,3-dimethylbutyl)amino)-5-fluoro-2-((quinolin-6-yl)amino)nicotinamide]: the IC50 fell in the range of 50 to 100 nM.

Still in this assay, the particulars now being: read-out: Syk-inhibitory activity (IC50).
On to `COc1cc(Nc2nc(N[C@H](C(N)=O)c3ccccc3)c(F)cc2C(N)=O)cc(OC)c1` [Example 16-18, 6-(((1S)-2-amino-2-oxo-1-phenylethyl)amino)-2-((3,5-dimethoxyphenyl)amino)-5-fluoronicotinamide], for which the half-maximal inhibitory concentration (IC50) was not above 1000 nM.
In the case of `Cc1nc2ccc(Nc3nc(NCCN)c(F)cc3C(N)=O)cc2o1` [Example 6-23, 6-((2-aminoethyl)amino)-5-fluoro-2-((2-methylbenzo[d]oxazol-6-yl)amino)nicotinamide], the IC50 is not above 1000 nM.
As to `CCNc1nc(Nc2cc(OC)cc(OC)c2)c(C(N)=O)cc1F` [Example 15, 2-(3,5-dimethoxyphenylamino)-6-(ethylamino)-5-fluoronicotinamide], the IC50 was not above 1000 nM.
